The values that follow come from ChEMBL document CHEMBL5465560, “Selectivity Literature for EUbOPEN Chemogenomic Library” (2024).

Assay [1] addresses Serine/threonine-protein kinase MARK2 (Homo sapiens) (UniProt Q7KZI7). Kind of assay: Selectivity interaction (KinomeScan (DiscoverX)) EUB0000695a MARK2. Conditions: at 100 nM.
Assay [2] has as its target Mitogen-activated protein kinase kinase kinase 4 (Homo sapiens) (UniProt Q9Y6R4). Kind of assay: Selectivity interaction (KinomeScan (DiscoverX)) EUB0000666a MAP3K4. Conditions: at 10 µM.
The target of assay [3] is T1, Myotonin-protein kinase (Homo sapiens) (UniProt Q09013).
T1 sequence (whole entry): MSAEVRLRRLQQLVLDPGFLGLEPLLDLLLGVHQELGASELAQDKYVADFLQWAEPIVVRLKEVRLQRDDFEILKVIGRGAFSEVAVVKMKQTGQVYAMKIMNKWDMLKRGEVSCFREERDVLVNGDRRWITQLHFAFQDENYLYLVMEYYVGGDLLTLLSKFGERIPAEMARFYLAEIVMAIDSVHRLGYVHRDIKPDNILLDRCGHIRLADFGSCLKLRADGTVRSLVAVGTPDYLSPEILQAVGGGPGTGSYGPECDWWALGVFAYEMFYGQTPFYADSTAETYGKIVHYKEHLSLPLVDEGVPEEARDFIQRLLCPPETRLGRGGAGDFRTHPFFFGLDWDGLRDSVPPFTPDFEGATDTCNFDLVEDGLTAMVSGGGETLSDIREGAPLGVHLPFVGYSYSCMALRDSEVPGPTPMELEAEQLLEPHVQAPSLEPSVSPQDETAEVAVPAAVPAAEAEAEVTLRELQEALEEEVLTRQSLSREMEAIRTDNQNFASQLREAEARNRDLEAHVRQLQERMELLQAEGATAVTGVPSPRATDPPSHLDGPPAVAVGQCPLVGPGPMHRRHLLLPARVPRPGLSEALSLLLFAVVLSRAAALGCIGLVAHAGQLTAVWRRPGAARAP
Kind of assay: Selectivity interaction (Ambit KINOMEscan and KiNATiv profiling in Jurkat cells) EUB0000090b DMPK. Type of assay: cell-based. Conditions: at 1 µM.

Assay [4] addresses T2, Serine/threonine-protein kinase Nek2 (Homo sapiens) (UniProt P51955).
T2 sequence (whole entry): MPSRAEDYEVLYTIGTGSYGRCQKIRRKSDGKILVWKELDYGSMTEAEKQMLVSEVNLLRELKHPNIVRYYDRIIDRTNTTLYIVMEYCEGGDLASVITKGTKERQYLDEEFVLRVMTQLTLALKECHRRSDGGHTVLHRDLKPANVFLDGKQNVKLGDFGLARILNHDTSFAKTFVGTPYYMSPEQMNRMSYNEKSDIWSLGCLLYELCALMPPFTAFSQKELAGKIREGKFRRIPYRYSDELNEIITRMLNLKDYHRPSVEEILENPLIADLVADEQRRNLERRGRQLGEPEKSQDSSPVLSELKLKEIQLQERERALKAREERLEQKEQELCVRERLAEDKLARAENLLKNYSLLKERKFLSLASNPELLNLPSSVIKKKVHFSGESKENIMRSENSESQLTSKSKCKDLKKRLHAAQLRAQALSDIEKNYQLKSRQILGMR
Put plainly: Selectivity interaction (Upstate Kinase Profiler service (Millipore)) EUB0000056c NEK2. Conditions: at 1 µM.

The target of assay [5] is T3, Muscarinic acetylcholine receptor M1 (Homo sapiens) (UniProt P11229).
T3 sequence (whole entry): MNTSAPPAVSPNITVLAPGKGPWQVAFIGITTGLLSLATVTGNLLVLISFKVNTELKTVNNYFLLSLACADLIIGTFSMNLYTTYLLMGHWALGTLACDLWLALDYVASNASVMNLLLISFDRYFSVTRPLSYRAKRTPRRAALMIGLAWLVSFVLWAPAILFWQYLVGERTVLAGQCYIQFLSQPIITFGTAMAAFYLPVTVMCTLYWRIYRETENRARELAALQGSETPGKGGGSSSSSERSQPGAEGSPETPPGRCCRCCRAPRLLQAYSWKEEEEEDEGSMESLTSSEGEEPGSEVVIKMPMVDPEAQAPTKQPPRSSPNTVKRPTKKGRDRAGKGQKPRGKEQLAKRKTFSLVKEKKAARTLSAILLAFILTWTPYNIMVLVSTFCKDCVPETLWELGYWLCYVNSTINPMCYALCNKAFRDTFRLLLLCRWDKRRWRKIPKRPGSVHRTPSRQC
Put plainly: Selectivity interaction (Panel of kinases, GPCRs, ion channels and transporters (enzymatic assay)) EUB0000266bCl CHRM1.

For assay [6], the target named is Serine/threonine-protein kinase Nek4 (Homo sapiens) (UniProt P51957). Kind of assay: Selectivity interaction (KinomeScan (DiscoverX)) EUB0000229b NEK4. Conditions: at 10 µM.

SMILES strings stand for the structures.

Sequence of Serine/threonine-protein kinase Nek4 (Homo sapiens) (P51957 whole entry, looked up): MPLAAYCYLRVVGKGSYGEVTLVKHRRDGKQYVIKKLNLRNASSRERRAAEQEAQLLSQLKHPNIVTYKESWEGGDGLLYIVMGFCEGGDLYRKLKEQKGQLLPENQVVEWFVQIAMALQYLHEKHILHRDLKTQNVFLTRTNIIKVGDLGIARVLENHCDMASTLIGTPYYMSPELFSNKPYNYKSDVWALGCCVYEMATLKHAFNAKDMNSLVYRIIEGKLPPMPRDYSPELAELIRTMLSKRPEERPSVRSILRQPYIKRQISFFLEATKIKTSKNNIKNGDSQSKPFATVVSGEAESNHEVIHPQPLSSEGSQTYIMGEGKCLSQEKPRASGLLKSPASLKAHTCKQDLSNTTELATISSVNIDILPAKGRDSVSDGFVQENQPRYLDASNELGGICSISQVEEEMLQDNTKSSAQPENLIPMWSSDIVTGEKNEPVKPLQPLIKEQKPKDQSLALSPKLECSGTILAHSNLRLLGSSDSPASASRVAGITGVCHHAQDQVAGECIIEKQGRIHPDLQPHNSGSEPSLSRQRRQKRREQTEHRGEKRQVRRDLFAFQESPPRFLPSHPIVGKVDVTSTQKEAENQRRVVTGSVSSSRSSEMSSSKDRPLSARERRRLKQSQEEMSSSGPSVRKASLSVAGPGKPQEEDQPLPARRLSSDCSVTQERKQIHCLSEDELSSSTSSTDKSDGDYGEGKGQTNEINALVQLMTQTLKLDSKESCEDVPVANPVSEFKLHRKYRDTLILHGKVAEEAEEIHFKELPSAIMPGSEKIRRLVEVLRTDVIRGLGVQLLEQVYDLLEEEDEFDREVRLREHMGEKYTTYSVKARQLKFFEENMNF
Sequence of Mitogen-activated protein kinase kinase kinase 4 (Homo sapiens) (Q9Y6R4 whole entry): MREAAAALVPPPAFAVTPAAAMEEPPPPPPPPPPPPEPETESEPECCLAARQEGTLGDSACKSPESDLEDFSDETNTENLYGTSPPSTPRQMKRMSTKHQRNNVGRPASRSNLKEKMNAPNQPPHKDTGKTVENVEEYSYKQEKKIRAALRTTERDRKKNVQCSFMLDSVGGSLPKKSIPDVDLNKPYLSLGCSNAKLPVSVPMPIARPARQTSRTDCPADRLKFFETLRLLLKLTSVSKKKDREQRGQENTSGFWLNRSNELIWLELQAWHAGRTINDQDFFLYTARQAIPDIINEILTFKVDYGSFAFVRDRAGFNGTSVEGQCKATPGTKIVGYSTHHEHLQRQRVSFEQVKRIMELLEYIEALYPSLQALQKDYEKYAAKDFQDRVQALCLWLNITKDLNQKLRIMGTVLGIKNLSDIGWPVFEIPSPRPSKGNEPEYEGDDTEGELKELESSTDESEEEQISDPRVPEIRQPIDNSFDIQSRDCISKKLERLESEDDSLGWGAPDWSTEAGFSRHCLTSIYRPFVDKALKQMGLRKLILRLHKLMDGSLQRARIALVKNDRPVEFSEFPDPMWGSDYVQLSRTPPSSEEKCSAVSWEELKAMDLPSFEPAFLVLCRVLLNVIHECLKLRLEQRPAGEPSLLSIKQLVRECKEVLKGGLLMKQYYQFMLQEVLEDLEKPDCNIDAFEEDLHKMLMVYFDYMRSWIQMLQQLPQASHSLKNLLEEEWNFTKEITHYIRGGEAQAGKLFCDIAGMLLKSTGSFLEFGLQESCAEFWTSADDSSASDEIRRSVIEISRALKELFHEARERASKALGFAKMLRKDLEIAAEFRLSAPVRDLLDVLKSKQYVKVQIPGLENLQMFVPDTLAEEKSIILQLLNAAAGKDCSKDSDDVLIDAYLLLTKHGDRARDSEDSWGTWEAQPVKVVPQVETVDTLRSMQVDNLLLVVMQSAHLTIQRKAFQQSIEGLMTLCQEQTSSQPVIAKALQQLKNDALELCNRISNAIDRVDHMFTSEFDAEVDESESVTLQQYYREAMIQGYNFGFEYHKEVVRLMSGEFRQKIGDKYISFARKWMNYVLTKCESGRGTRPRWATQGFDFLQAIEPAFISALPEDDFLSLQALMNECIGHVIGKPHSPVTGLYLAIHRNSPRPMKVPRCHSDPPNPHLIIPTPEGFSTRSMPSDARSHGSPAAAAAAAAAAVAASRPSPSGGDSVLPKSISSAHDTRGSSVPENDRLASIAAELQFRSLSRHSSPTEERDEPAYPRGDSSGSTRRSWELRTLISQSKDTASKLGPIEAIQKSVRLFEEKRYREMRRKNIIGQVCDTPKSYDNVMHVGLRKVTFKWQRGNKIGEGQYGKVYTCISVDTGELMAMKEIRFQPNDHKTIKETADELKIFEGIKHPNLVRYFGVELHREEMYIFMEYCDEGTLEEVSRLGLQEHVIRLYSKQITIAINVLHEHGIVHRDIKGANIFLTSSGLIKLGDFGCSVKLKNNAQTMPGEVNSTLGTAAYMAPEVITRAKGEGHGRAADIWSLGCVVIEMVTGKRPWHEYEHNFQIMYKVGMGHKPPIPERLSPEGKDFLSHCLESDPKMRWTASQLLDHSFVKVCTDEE
Sequence of Serine/threonine-protein kinase MARK2 (Homo sapiens) (Q7KZI7 whole entry): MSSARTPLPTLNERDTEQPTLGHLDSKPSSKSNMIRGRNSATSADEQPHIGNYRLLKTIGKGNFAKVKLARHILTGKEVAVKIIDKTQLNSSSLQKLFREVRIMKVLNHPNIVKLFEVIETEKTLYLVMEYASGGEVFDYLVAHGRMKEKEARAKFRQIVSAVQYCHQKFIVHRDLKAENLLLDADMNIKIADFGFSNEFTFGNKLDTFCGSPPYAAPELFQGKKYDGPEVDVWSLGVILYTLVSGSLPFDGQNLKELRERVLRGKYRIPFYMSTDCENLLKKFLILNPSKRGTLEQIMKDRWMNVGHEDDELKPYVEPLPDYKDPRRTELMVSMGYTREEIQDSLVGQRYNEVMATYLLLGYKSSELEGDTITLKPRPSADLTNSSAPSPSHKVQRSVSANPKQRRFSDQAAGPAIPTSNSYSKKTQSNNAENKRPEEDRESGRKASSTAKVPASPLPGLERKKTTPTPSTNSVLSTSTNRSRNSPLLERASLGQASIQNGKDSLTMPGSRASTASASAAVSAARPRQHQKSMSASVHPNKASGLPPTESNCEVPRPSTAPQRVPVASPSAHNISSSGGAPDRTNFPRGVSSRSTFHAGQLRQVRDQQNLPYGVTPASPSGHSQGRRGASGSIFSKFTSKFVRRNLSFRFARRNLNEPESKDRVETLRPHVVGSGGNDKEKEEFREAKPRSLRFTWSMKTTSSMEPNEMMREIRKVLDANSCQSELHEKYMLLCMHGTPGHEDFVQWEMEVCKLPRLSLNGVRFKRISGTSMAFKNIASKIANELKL

Compound `Cc1cc(F)c(C(=O)Nc2cccc(-c3nncn3C(C)C)n2)cc1-n1cnc(C2CC2)c1` showed a % of control in assay [1] of 100%. Compound `O=C(NOC[C@H](O)CO)c1ccc(F)c(F)c1Nc1ccc(I)cc1F` registered a % of control in assay [2] of 100%. With `CN(C)C/C=C/C(=O)Nc1ccc(C(=O)N2CCCC(Nc3ncc(Cl)c(-c4c[nH]c5ccccc45)n3)C2)cc1` (stereo unspecified), the % of control in assay [3] was determined as 91%. Consider `Cc1ccc(-c2ccc3c(ccc4sc5c(c43)NC[C@@H](C)NC5=O)n2)cn1`, for which the % of inhibition in assay [4] was -7%.

The compound `CCn1c(-c2nc3cc(C(=O)N4CCCC(N)C4)ccc3n2C)cc2ccccc21` (stereo unspecified) gave a pXC50 in assay [5] of 4.8 M. In assay [6], `COc1cc(N(C)c2ccnc3ccc(C(F)(F)F)cc23)cc(OC)c1OC` displayed a % binding of 82%.
